Data reported in patent US20230181570A1, “Transdermal Formulation Containing Apomorphine” (MEDRX CO., LTD., priority 2020, published 2023).
Structures can show the parent of a compound that is named as a salt.

Assay: Study of the solubility of apomorphine hydrochloride in various solvents

solubility (each used alone: water, 1,3-butanediol, polyethylene glycol, propylene glycol, glycerin, propylene carbonate): ≤ 3 % by weight
apomorphine hydrochloride solution able to be prepared (low molecular weight polyethylene glycol combined with propylene carbonate): 8 % by weight
solubility in propylene carbonate (propylene carbonate used alone): 0.25 % by weight
apomorphine hydrochloride solution able to be prepared (propylene glycol and propylene carbonate, weight of propylene glycol five times or more that of propylene carbonate): 10 % by weight
SMILES: CN1CCc2cccc3c2[C@H]1Cc1ccc(O)c(O)c1-3 [apomorphine hydrochloride]
